Laboratory results from patent US8952024B2, “Herbicidal pyrimidone derivatives” (E I du Pont de Nemours and Company, priority 2009, dated 2015).

Experiments:
Assay in all cases: Test D pre-/postemergence plant response
Assay type in all cases: in vivo
[1] = system: Italian ryegrass (Lolium multiflorum)
Description: (§1) Seeds of plant species selected from bermudagrass (Cynodon dactylon), Surinam grass (Brachiaria decumbens), large crabgrass (Digitaria sanguinalis), green foxtail (Setaria viridis), goosegrass (Eleusine indica), johnsongrass (Sorghum halepense), kochia (Kochia scoparia), morningglory (pitted morningglory, Ipomoea lacunosa), nutsedge (purple nutsedge, Cyperus rotundus), ragweed (common ragweed, Ambrosia elatior), black mustard (Brassica nigra), guineagrass (Panicum maximum), dallisgrass (Paspalum dilatatum), barnyardgrass (Echinochloa crus-galli), sandbur (southern sandbur, Cenchrus echinatus), sowthistle (common sowthistle, Sonchus oleraceous), prickly sida (Sida spinosa), Italian ryegrass (Lolium multiflorum), purslane (common purslane, Portulaca oleracea), signalgrass (broadleaf signalgrass, Brachiaria platyphylla), groundsel (common groundsel, Senecio vulgaris), chickweed (common chickweed, Stellaria media), dayflower (Virginia (VA) dayflower, Commelina virginica), bluegrass (annual bluegrass, Poa annua), naked crabgrass (Digitaria nuda), itchgrass (Rottboellia cochinchinensis), quackgrass (Elytrigia repens), field bindweed (Convolvulus arvensis), spanishneedles (Bidens bipinnata), mallow (common mallow, Malva sylvestris) and Russian thistle (Salsola kali), were planted into a blend of loam soil and sand and treated preemergence with test chemicals formulated in a non-phytotoxic solvent mixture which included a surfactant. At the same time, plants from these weed species were treated with postemergence applications of the test chemicals formulated in the same manner. Plants ranged in height from 2 to 18 cm (1- to 4-leaf stage) for postemergence treatments.
(§2) Treated plants and controls were maintained in a greenhouse for 14 to 21 days, after which time all species were visually evaluated and compared to controls. Plant response ratings, summarized in Table D, are based on a scale of 0 to 100 where 0 is no effect and 100 is complete control. A dash (-) response means no test result.

[2] = system: Russian thistle (Salsola kali)
Description: as §1, §2

[3] = system: black mustard (Brassica nigra)
Description: as §1, §2

[4] = system: bluegrass (annual bluegrass, Poa annua)
Description: as §1, §2

[5] = system: chickweed (common chickweed, Stellaria media); conditions: Postemergence
Description: as §1, §2

[6] = system: field bindweed (Convolvulus arvensis)
Description: as §1, §2

[7] = system: large crabgrass (Digitaria sanguinalis)
Description: as §1, §2

[8] = system: morningglory (pitted morningglory, Ipomoea lacunosa)
Description: as §1, §2

[9] = system: nutsedge (purple nutsedge, Cyperus rotundus)
Description: as §1, §2

[10] = system: prickly sida (Sida spinosa)
Description: as §1, §2

[11] = system: purslane (common purslane, Portulaca oleracea)
Description: as §1, §2

[12] = system: quackgrass (Elytrigia repens)
Description: as §1, §2

[13] = system: ragweed (common ragweed, Ambrosia elatior)
Description: as §1, §2

[14] = system: sandbur (southern sandbur, Cenchrus echinatus)
Description: as §1, §2

[15] = system: signalgrass (broadleaf signalgrass, Brachiaria platyphylla)
Description: as §1, §2

[16] = system: spanishneedles (Bidens bipinnata)
Description: as §1, §2

[17] = Postemergence, 16 g ai/ha, scale 0 to 100
[18] = Postemergence, 31 g ai/ha, scale 0 to 100
[19] = Postemergence, 125 g ai/ha, scale 0 to 100 (0 no effect, 100 complete control)
[20] = Postemergence, 62 g ai/ha, scale 0 to 100 (0 no effect, 100 complete control)
[21] = Preemergence, 16 g ai/ha, scale 0 to 100, 0 no effect, 100 complete control
[22] = Preemergence, 31 g ai/ha, scale 0 to 100 (0 no effect, 100 complete control)
[23] = Preemergence, 125 g ai/ha, scale 0 to 100
[24] = Preemergence, rate not given, scale 0 to 100, 0 no effect, 100 complete control
[25] = Postemergence, 31 g ai/ha, scale 0 to 100 (0 no effect, 100 complete control)
[26] = Preemergence, 62 g ai/ha, scale 0 to 100

Cc1c(F)cccc1-n1c(-c2ccccc2)ncc(C(=O)C2=C(O)CCCC2=O)c1=O [Compound 47, 3-(3-fluoro-2-methylphenyl)-5-[(2-hydroxy-6-oxo-1-cyclohexen-1-yl)carbonyl]-2-phenyl-4(3H)-pyrimidinone]
Plant response rating, Ryegrass, Italian [1, 17]: 0 | Plant response rating, Ryegrass, Italian [1, 18]: 10 | Plant response rating, Ryegrass, Italian [1, 19]: 30 | Plant response rating, Ryegrass, Italian [1, 20]: 20 | Plant response rating, Ryegrass, Italian [1, 21]: 0 | Plant response rating, Ryegrass, Italian [1, 22]: 0 | Plant response rating, Ryegrass, Italian [1, 23]: 0 | Plant response rating, Ryegrass, Italian [1, 24]: 0 | Plant response rating, Russian Thistle [2, 17]: 20 | Plant response rating, Russian Thistle [2, 20]: 20 | Plant response rating, Russian Thistle [2, 21]: 0 | Plant response rating, Russian Thistle [2, 23]: 100 | Plant response rating, Black Mustard [3, 17]: 95 | Plant response rating, Black Mustard [3, 25]: 100 | Plant response rating, Black Mustard [3, 19]: 100 | Plant response rating, Black Mustard [3, 20]: 100 | Plant response rating, Black Mustard [3, 21]: 0 | Plant response rating, Black Mustard [3, 22]: 65 | Plant response rating, Black Mustard [3, 26]: 80 | Plant response rating, Black Mustard [3, 23]: 100 | Plant response rating, Bluegrass [4, 17]: 0 | Plant response rating, Bluegrass [4, 25]: 0 | Plant response rating, Bluegrass [4, 19]: 0 | Plant response rating, Bluegrass [4, 20]: 0 | Plant response rating, Bluegrass [4, 21]: 0 | Plant response rating, Bluegrass [4, 22]: 0 | Plant response rating, Bluegrass [4, 26]: 0 | Plant response rating, Bluegrass [4, 23]: 35 | Plant response rating, Chickweed ([5]; 16 g ai/ha, scale 0 to 100): 50 | Plant response rating, Chickweed ([5]; 31 g ai/ha, scale 0 to 100): 65 | Plant response rating, Chickweed ([5]; 125 g ai/ha, scale 0 to 100 (0 no effect, 100 complete control)): 65 | Plant response rating, Field Bindweed [6, 17]: 35 | Plant response rating, Field Bindweed [6, 18]: 40 | Plant response rating, Field Bindweed [6, 19]: 65 | Plant response rating, Field Bindweed [6, 20]: 50 | Plant response rating, Field Bindweed [6, 21]: 0 | Plant response rating, Field Bindweed [6, 22]: 0 | Plant response rating, Field Bindweed [6, 26]: 0 | Plant response rating, Field Bindweed [6, 23]: 35 | Plant response rating, Crabgrass, Large [7, 17]: 20 | Plant response rating, Crabgrass, Large [7, 18]: 50 | Plant response rating, Crabgrass, Large [7, 19]: 65 | Plant response rating, Crabgrass, Large [7, 20]: 60 | Plant response rating, Crabgrass, Large [7, 21]: 0 | Plant response rating, Crabgrass, Large [7, 22]: 0 | Plant response rating, Crabgrass, Large [7, 26]: 5 | Plant response rating, Crabgrass, Large [7, 23]: 95 | Plant response rating, Morningglory [8, 17]: 5 | Plant response rating, Morningglory [8, 18]: 5 | Plant response rating, Morningglory [8, 19]: 50 | Plant response rating, Morningglory [8, 21]: 0 | Plant response rating, Morningglory [8, 22]: 0 | Plant response rating, Morningglory [8, 26]: 20 | Plant response rating, Morningglory [8, 23]: 65 | Plant response rating, Nutsedge, Purple [9, 17]: 0 | Plant response rating, Nutsedge, Purple [9, 18]: 0 | Plant response rating, Nutsedge, Purple [9, 19]: 20 | Plant response rating, Nutsedge, Purple [9, 20]: 10 | Plant response rating, Nutsedge, Purple [9, 21]: 0 | Plant response rating, Nutsedge, Purple [9, 22]: 0 | Plant response rating, Nutsedge, Purple [9, 26]: 10 | Plant response rating, Nutsedge, Purple [9, 23]: 35 | Plant response rating, Prickly Sida [10, 17]: 60 | Plant response rating, Prickly Sida [10, 18]: 70 | Plant response rating, Prickly Sida [10, 19]: 90 | Plant response rating, Prickly Sida [10, 20]: 80 | Plant response rating, Prickly Sida [10, 21]: 0 | Plant response rating, Prickly Sida [10, 22]: 50 | Plant response rating, Prickly Sida [10, 26]: 65 | Plant response rating, Prickly Sida [10, 23]: 100 | Plant response rating, Purslane [11, 17]: 20 | Plant response rating, Purslane [11, 18]: 20 | Plant response rating, Purslane [11, 19]: 30 | Plant response rating, Purslane [11, 20]: 30 | Plant response rating, Purslane [11, 21]: 0 | Plant response rating, Purslane [11, 22]: 0 | Plant response rating, Purslane [11, 26]: 95 | Plant response rating, Purslane [11, 23]: 100 | Plant response rating, Quackgrass [12, 17]: 0 | Plant response rating, Quackgrass [12, 18]: 0 | Plant response rating, Quackgrass [12, 19]: 5 | Plant response rating, Quackgrass [12, 20]: 0 | Plant response rating, Quackgrass [12, 21]: 0 | Plant response rating, Quackgrass [12, 22]: 0 | Plant response rating, Quackgrass [12, 23]: 0 | Plant response rating, Ragweed [13, 17]: 75 | Plant response rating, Ragweed [13, 18]: 75 | Plant response rating, Ragweed [13, 19]: 95 | Plant response rating, Ragweed [13, 20]: 80 | Plant response rating, Ragweed [13, 21]: 0 | Plant response rating, Ragweed [13, 22]: 50 | Plant response rating, Ragweed [13, 23]: 100 | Plant response rating, Sandbur [14, 17]: 5 | Plant response rating, Sandbur [14, 18]: 5 | Plant response rating, Sandbur [14, 19]: 35 | Plant response rating, Sandbur [14, 20]: 20 | Plant response rating, Sandbur [14, 21]: 0 | Plant response rating, Sandbur [14, 22]: 0 | Plant response rating, Sandbur [14, 23]: 90 | Plant response rating, Signalgrass [15, 17]: 0 | Plant response rating, Signalgrass [15, 18]: 5 | Plant response rating, Signalgrass [15, 19]: 20 | Plant response rating, Signalgrass [15, 20]: 15 | Plant response rating, Signalgrass [15, 21]: 0 | Plant response rating, Signalgrass [15, 22]: 0 | Plant response rating, Signalgrass [15, 23]: 90 | Plant response rating, Spanishneedles [16, 17]: 35 | Plant response rating, Spanishneedles [16, 18]: 40 | Plant response rating, Spanishneedles [16, 19]: 70 | Plant response rating, Spanishneedles [16, 20]: 65 | Plant response rating, Spanishneedles [16, 21]: 0 | Plant response rating, Spanishneedles [16, 22]: 95 | Plant response rating, Spanishneedles [16, 23]: 95 | Plant response rating, Spanishneedles [16, 24]: 95
